Test results taken from PubChem BioAssay AID330 (DTP/NCI, 2004).
Values joined by “and” are separate entries in the source; they are usually repeats but may differ in a detail not shown here. Equal values may be shown once. Toxic doses and inconclusive results are not listed. The calls were made as follows: active = survival T/C of 150% or more; inactive = T/C below 125% in these data.

System: P388 leukemia ip, CD2F1 mice, survival T/C
Assay: NCI In Vivo Anticancer Drug Screen. Data for tumor model P388 Leukemia (intraperitoneal) in CD2F1 (CDF1) mice
Details: endpoint: median survival time, higher = longer survival
How it was run: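 Mice carrying the transplanted tumor received test compound or vehicle. Survival was recorded in each group, and the value is the treated-group measurement divided by that of the vehicle-treated control group.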

[1] = dose: 60.0 mg/kg/injection, schedule: Q01DX005 (ip), vehicle: saline with Tween-80
[2] = dose: 120.0 mg/kg/injection, schedule: Q01DX005 (ip), vehicle: saline with Tween-80
[3] = dose: 240.0 mg/kg/injection, schedule: Q01DX005 (ip), vehicle: saline with Tween-80
[4] = dose: 25.0 mg/kg/injection, schedule: Q04DX002 (ip), vehicle: saline with Tween-80
[5] = dose: 100.0 mg/kg/injection, schedule: Q04DX002 (ip), vehicle: saline with Tween-80
[6] = dose: 60.0 mg/kg/injection, schedule: Q01DX005 (ip), vehicle: Klucel (hydroxypropylcellulose) (HPC)
[7] = dose: 120.0 mg/kg/injection, schedule: Q01DX005 (ip), vehicle: Klucel (hydroxypropylcellulose) (HPC)
[8] = dose: 240.0 mg/kg/injection, schedule: Q01DX005 (ip), vehicle: Klucel (hydroxypropylcellulose) (HPC)
[9] = dose: 50.0 mg/kg/injection, schedule: Q01DX009 (ip), vehicle: saline with Tween-80
[10] = dose: 100.0 mg/kg/injection, schedule: Q01DX009 (ip), vehicle: saline with Tween-80
[11] = dose: 50.0 mg/kg/injection, schedule: Q01DX005 (ip), vehicle: Klucel (hydroxypropylcellulose) (HPC)
[12] = dose: 100.0 mg/kg/injection, schedule: Q01DX005 (ip), vehicle: Klucel (hydroxypropylcellulose) (HPC)
[13] = dose: 200.0 mg/kg/injection, schedule: Q01DX005 (ip), vehicle: Klucel (hydroxypropylcellulose) (HPC)
[14] = dose: 50.0 mg/kg/injection, schedule: Q01DX009 (ip), vehicle: saline
[15] = dose: 100.0 mg/kg/injection, schedule: Q01DX009 (ip), vehicle: saline
[16] = dose: 200.0 mg/kg/injection, schedule: Q01DX009 (ip), vehicle: saline
[17] = dose: 25.0 mg/kg/injection, schedule: Q01DX005 (ip), vehicle: Klucel (hydroxypropylcellulose) (HPC)
[18] = dose: 200.0 mg/kg/injection, schedule: Q01DX009 (ip), vehicle: saline with Tween-80

Measured: T/C

Nc1ccccc1-c1nnc(-c2ccccc2)o1
inactive: [1] 100 % of control | [2] 89 % of control | [3] 86 % of control

CN=C(N)NN=C(c1ccccc1)c1ccccc1
inactive: [4] 104 % of control | dose: 50.0 mg/kg/injection, schedule: Q04DX002 (ip), vehicle: saline with Tween-80 109 % of control | [5] 110 % of control

CC(C)[Si]1(C(C)C)N[Si](C(C)C)(C(C)C)N[Si](C(C)C)(C(C)C)N1
inactive: [6] 108 % of control | [7] 93 % of control | [8] 100 % of control

N/C(=N\S(=O)(=O)c1cc(C(F)(F)F)cc(C(F)(F)F)c1)c1ccncc1
inactive: [9] 86 % of control | [10] 90 % of control

O=C(O)CNC(=O)Cc1cccc2ccccc12
inactive: [11] 102 % of control | [12] 98 % of control | [13] 95 % of control

CC(=O)O[C@@H]1CO[C@H]2O[C@H]3[C@@H](C(C=O)=C[C@H](O)[C@@H]4C5=C(C(C)C)CC[C@]5(C)CC[C@@]34C)[C@@]2(O)C1=O
inactive: dose: 0.39 mg/kg/injection, schedule: Q01DX009 (ip), vehicle: Klucel (hydroxypropylcellulose) (HPC) 94 % of control | dose: 0.78 mg/kg/injection, schedule: Q01DX009 (ip), vehicle: Klucel (hydroxypropylcellulose) (HPC) 104 % of control | dose: 3.12 mg/kg/injection, schedule: Q01DX009 (ip), vehicle: Klucel (hydroxypropylcellulose) (HPC) 107 % of control and 114 % of control | dose: 6.25 mg/kg/injection, schedule: Q01DX009 (ip), vehicle: Klucel (hydroxypropylcellulose) (HPC) 115 % of control and 121 % of control

ClC(Cl)(Cl)C(c1ccc(Br)cc1)c1ccc(Br)cc1
inactive: [1] 95 % of control | [2] 94 % of control | [3] 95 % of control

C=CCN(CC=C)CC(C)(O)CNc1cc(OC)cc2cccnc12 (stereo not drawn)
inactive: dose: 50.0 mg/kg/injection, schedule: Q01DX005 (ip), vehicle: saline 107 % of control | dose: 100.0 mg/kg/injection, schedule: Q01DX005 (ip), vehicle: saline 101 % of control

CCCC(=O)O
inactive: [14] 93 % of control | [15] 91 % of control | [16] 90 % of control

CCOC1[N-]CC(C)C(OCC)N1.CCOC1[N-]CC(C)C(OCC)N1.[Cl][Pd][Cl] (stereo not drawn)
inactive: [6] 102 % of control | [7] 106 % of control | [8] 107 % of control

Cc1cccc(C)c1Nc1nnc(-c2ccc(N(C)C)cc2)s1
inactive: [1] 86 % of control | [2] 87 % of control

CC(=NCc1ccccc1)Nc1ccc(NC(=O)c2ccc(C(=O)Nc3ccc(NC(C)=NCc4ccccc4)cc3)cc2)cc1
inactive: [17] 98 % of control | [11] 95 % of control | [12] 94 % of control | [13] 99 % of control

Cc1cc2nnnn2c2ccccc12
inactive: [14] 96 % of control | [15] 99 % of control | [16] 95 % of control

NC(=S)NC(=O)c1cccs1
inactive: [9] 95 % of control | [10] 94 % of control | [18] 93 % of control

O=C1/C(=C/c2cccnc2)SC(=S)N1Cc1ccco1
inactive: [9] 97 % of control | [10] 94 % of control | [18] 90 % of control

CC(=O)OC1CCC2(C)C(=CCC3C2CCC2(C)C3CC3C(c4ccccc4)=NC(c4ccccc4)C32C(C)=O)C1 (stereo not drawn)
inactive: dose: 100.0 mg/kg/injection, schedule: Q01DX001 (ip), vehicle: saline with Tween-80 93 % of control | [5] 108 % of control | dose: 200.0 mg/kg/injection, schedule: Q01DX001 (ip), vehicle: saline with Tween-80 91 % of control | dose: 200.0 mg/kg/injection, schedule: Q04DX002 (ip), vehicle: saline with Tween-80 100 % of control | dose: 400.0 mg/kg/injection, schedule: Q01DX001 (ip), vehicle: saline with Tween-80 90 % of control | dose: 400.0 mg/kg/injection, schedule: Q04DX002 (ip), vehicle: saline with Tween-80 105 % of control

O=C1NN2CCN=C2c2ncccc21
inactive: [1] 104 % of control | [2] 94 % of control | [3] 87 % of control

O=C1C=C2C=CC3CC2(O1)C1CCCCN31 (stereo not drawn)
inactive: dose: 6.25 mg/kg/injection, schedule: Q04DX002 (ip), vehicle: saline with Tween-80 113 % of control | dose: 10.0 mg/kg/injection, schedule: Q01DX010 (ip), vehicle: saline 90 % of control | dose: 12.5 mg/kg/injection, schedule: Q04DX002 (ip), vehicle: saline with Tween-80 106 % of control | dose: 20.0 mg/kg/injection, schedule: Q01DX010 (ip), vehicle: saline 90 % of control | dose: 25.0 mg/kg/injection, schedule: Q01DX010 (ip), vehicle: saline 90 % of control and 110 % of control | [4] 106 % of control | dose: 50.0 mg/kg/injection, schedule: Q01DX010 (ip), vehicle: saline 100 % of control and 110 % of control | dose: 100.0 mg/kg/injection, schedule: Q01DX010 (ip), vehicle: saline 100 % of control and 120 % of control

O=S(=O)(CCNCCCCC1CCCCC1)SCCNCCCCC1CCCCC1
inactive: dose: 6.25 mg/kg/injection, schedule: Q01DX005 (ip), vehicle: Klucel (hydroxypropylcellulose) (HPC) 100 % of control | dose: 12.5 mg/kg/injection, schedule: Q01DX005 (ip), vehicle: Klucel (hydroxypropylcellulose) (HPC) 101 % of control | [17] 95 % of control

CCOC(=O)C(=CNc1ccc2c(c1)OCO2)C(=O)OCC
inactive: dose: 50.0 mg/kg/injection, schedule: Q01DX005 (ip), vehicle: distilled water + Tween-80 + alcohol 100 % of control | dose: 100.0 mg/kg/injection, schedule: Q01DX005 (ip), vehicle: distilled water + Tween-80 + alcohol 95 % of control | dose: 200.0 mg/kg/injection, schedule: Q01DX005 (ip), vehicle: distilled water + Tween-80 + alcohol 102 % of control

CCOC(=O)C(C)C(=O)C(C)N1C(=O)c2ccccc2C1=O (stereo not drawn)
inactive: dose: 25.0 mg/kg/injection, schedule: Q04DX003 (ip), vehicle: other 102 % of control | dose: 50.0 mg/kg/injection, schedule: Q04DX003 (ip), vehicle: other 96 % of control | dose: 100.0 mg/kg/injection, schedule: Q04DX003 (ip), vehicle: other 93 % of control | dose: 200.0 mg/kg/injection, schedule: Q04DX003 (ip), vehicle: other 93 % of control | dose: 400.0 mg/kg/injection, schedule: Q04DX003 (ip), vehicle: other 91 % of control

CC[C@@]1(CCC(=O)OC)CCC(=O)N2CC[C@@]3(C(=O)Nc4ccccc43)[C@@H]21
inactive: [11] 100 % of control | [12] 95 % of control | [13] 91 % of control

CC1=C(C)NC(C)=C(C)N1
inactive: [14] 97 % of control | [15] 95 % of control | [16] 97 % of control

C1=C[N-]c2c3c(ccc2=C1)=CC=C[N-]3.C1=C[N-]c2c3c(ccc2=C1)=CC=C[N-]3.O=[N+]([O-])O.[Cu+]
inactive: dose: 1.56 mg/kg/injection, schedule: Q04DX002 (ip), vehicle: saline 100 % of control | dose: 3.12 mg/kg/injection, schedule: Q04DX002 (ip), vehicle: saline 99 % of control and 98 % of control | dose: 6.25 mg/kg/injection, schedule: Q04DX002 (ip), vehicle: saline 99 % of control and 110 % of control and 98 % of control | dose: 12.5 mg/kg/injection, schedule: Q04DX002 (ip), vehicle: saline 120 % of control and 97 % of control | dose: 25.0 mg/kg/injection, schedule: Q04DX002 (ip), vehicle: saline 111 % of control and 97 % of control

CCC/C=C(\CC)COC(=O)Nc1ccccc1
inactive: dose: 50.0 mg/kg/injection, schedule: Q01DX005 (ip), vehicle: saline with Tween-80 86 % of control | dose: 100.0 mg/kg/injection, schedule: Q01DX005 (ip), vehicle: saline with Tween-80 100 % of control

O=C1OCCN1/N=C\c1ccccc1
inactive: [14] 94 % of control | [15] 87 % of control | [16] 90 % of control

COc1cccc2c1C(=O)c1c(O)c3c(c(O)c1C2=O)CC(O)(C(C)=O)CC3OC1CCN(c2ccccc2)CC(C)O1 (stereo not drawn)
inactive: dose: 3.13 mg/kg/injection, schedule: Q04DX003 (ip), vehicle: distilled water + Tween-80 96 % of control | dose: 6.25 mg/kg/injection, schedule: Q04DX003 (ip), vehicle: distilled water + Tween-80 98 % of control | dose: 12.5 mg/kg/injection, schedule: Q04DX003 (ip), vehicle: distilled water + Tween-80 100 % of control | dose: 25.0 mg/kg/injection, schedule: Q04DX003 (ip), vehicle: distilled water + Tween-80 98 % of control | dose: 50.0 mg/kg/injection, schedule: Q04DX003 (ip), vehicle: distilled water + Tween-80 105 % of control
